Biological target: T1, Kv1.1 alpha subunit T1 domain binding to Kvbeta1 subunits (Rattus norvegicus, UniProt P63144)
T1 construct: expression of Kv1.1 alpha subunit T1 domains in E. coli; His; made in house; host or cells: E. coli (cleared lysates)
T1 sequence (P63144 1-401): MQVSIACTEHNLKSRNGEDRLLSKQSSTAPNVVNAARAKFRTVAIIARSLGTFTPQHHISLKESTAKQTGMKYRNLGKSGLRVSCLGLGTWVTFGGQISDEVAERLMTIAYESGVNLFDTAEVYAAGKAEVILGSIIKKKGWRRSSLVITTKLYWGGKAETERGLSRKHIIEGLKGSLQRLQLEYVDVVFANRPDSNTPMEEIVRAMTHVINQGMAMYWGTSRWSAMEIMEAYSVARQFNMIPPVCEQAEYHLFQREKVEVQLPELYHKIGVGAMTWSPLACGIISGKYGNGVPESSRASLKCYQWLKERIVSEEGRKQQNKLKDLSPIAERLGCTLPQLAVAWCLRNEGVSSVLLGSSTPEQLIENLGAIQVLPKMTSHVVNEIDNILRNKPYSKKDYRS
Assay: Kv1.x T1 / Kvbeta subunit protein-protein interaction assay (ELISA)
Conditions: His-/FLAG-tagged Kv1.1 T1 domain lysate; biotin-tagged Kvbeta1 immobilised on streptavidin plates; anti-FLAG/HRP ELISA detection; read-out: IC50 for inhibition of Kv1.1 alpha subunit T1 binding to Kvbeta1 subunits
Procedure: Compounds of Examples 3, 13-15 and 18-22 and 24-26 were examined for their ability to inhibit the interaction between Kv1.x channels and Kvbeta subunits using a protein-protein interaction assay.
Cloning of rat His- and biotin-tagged Kvbeta1 subunit cDNA, expression of Kvbeta1 subunits in E. coli and lysis of E. coli containing Kvbeta1 subunits were carried out as previously described (Kozlowski et al., patent application WO03078464).
Cloning of His- and FLAG-tagged Kv1.1 alpha subunit T1 domain cDNA, expression of Kv1.1 alpha subunit T1 domains in E. coli and lysis of E. coli containing Kv1.1 alpha subunit T1 domains were carried out as previously described (Kozlowski et al., patent application WO03078464).
To 96-well streptavidin coated microtitre plates, 100 μl of optimized concentrations of Kvbeta1 subunit cleared lysates (typically 1 in 10 dilutions in PBS-Tween) were added to each well. Plates were incubated at room temperature for 1 hour prior to use. Each well was then washed 3 times with 300 μl of PBS-Tween. Following the final wash, 80 μl of PBS-Tween was added to each well.
The test compounds (dissolved in a suitable vehicle) were added to the wells of a prepared 96-well microliter plate to achieve a range of concentrations to maintain a final assay volume of 100 μl. Plates were incubated for 30 minutes at room temperature.
After incubation with test compounds, 100 μl of Kv1.1 alpha subunit T1 domain cleared lysate (diluted 1 in 10 in PBS-Tween) was added to each well and incubated for 60 minutes at room temperature on a shaker. Unbound Kv1.1 alpha subunit T1 domain was removed by washing 3 times in 300 μl of PBS-Tween. Bound Kv1.1 alpha subunit T1 domain was estimated by using appropriately diluted mouse anti-FLAG antibody and anti-mouse IgG secondary antibody HRP conjugate using standard ELISA procedures. HRP was detected as previously described (Kozlowski et al., patent application WO03078464).
Data were analyzed using standard software packages. The test compounds were examined for their ability to inhibit the binding of Kv1.1 alpha subunit T1 domain to Kvbeta1 subunits to determine inhibition as a percentage of maximal binding in the absence of any test compound. Results are presented as the half maximal inhibitory concentration (IC50) for inhibition of Kv1.1 alpha subunit T1 binding to Kvbeta1 subunits.

## Cc1ccc(S(=O)(=O)NC(=O)N2CCc3ccc(NS(=O)(=O)c4ccc(-c5ccccc5)cc4)cc3CC2)cc1 [Example 25, N-[(4-Methylphenyl)sulfonyl]-7-([(4-biphenyl)sulfonyl]amino)-1,2,4,5-tetrahydro-3H-3-benzazepine-3-carboxamide]
  IC50: 88 µM

## CC(C)(C)c1ccc(S(=O)(=O)NC(=O)Nc2ccc3c(c2)CCN(C(=O)NS(=O)(=O)c2ccc(C(C)(C)C)cc2)CC3)cc1 [Example 22, N-[(4-tert-Butylphenyl)sulfonyl]-7-({[(4-tert-butylphenyl)sulfonyl]carbamoyl}-amino)-1,2,4,5-tetrahydro-3H-3-benzazepine-3-carboxamide]
  IC50: 41 µM

## O=C(Nc1ccc2c(c1)CCN(C(=O)NS(=O)(=O)c1ccc(Cl)cc1)CC2)NS(=O)(=O)c1ccc(Cl)cc1 [Example 19, N-[(4-Chlorophenyl)sulfonyl]-7-({[(4-chlorophenyl)sulfonyl]carbamoyl}amino)-1,2,4,5-tetrahydro-3H-3-benzazepine-3-carboxamide]
  IC50: 51 µM

## Cc1ccc(S(=O)(=O)NC(=O)N2CCc3ccc(NS(=O)(=O)c4ccc(C)cc4)cc3CC2)cc1 [Example 24, N-[(4-Methylphenyl)sulfonyl]-7-([(4-methylphenyl)sulfonyl]amino)-1,2,4,5-tetrahydro-3H-3-benzazepine-3-carboxamide]
  IC50: 81 µM

## Cc1ccc(S(=O)(=O)NC(=O)Nc2ccc3c(c2)CN(C(=O)NS(=O)(=O)c2ccc(C)cc2)C3)cc1 [Example 14, N-[(4-methylphenyl)sulfonyl]-5-[({[(4-methylphenyl)sulfonyl]amino}carbonyl)amino]-1,3-dihydro-2H-isoindole-2-carboxamide]
  IC50: 16 µM

## O=C(Nc1ccc2c(c1)CCN(C(=O)NS(=O)(=O)c1ccccc1Cl)CC2)NS(=O)(=O)c1ccccc1Cl [Example 18, N-[(2-Chlorophenyl)sulfonyl]-7-({[(2-chlorophenyl)sulfonyl]carbamoyl}amino)-1,2,4,5-tetrahydro-3H-3-benzazepine-3-carboxamide]
  IC50: 181 µM

## O=C(Nc1ccc2c(c1)CCN(C(=O)NS(=O)(=O)c1ccc(F)cc1)CC2)NS(=O)(=O)c1ccc(F)cc1 [Example 20, N-[(4-Fluorophenyl)sulfonyl]-7-({[(4-fluorophenyl)sulfonyl]carbamoyl}amino)-1,2,4,5-tetrahydro-3H-3-benzazepine-3-carboxamide]
  IC50: 191 µM

## Cc1cccc(S(=O)(=O)NC(=O)Nc2ccc3c(c2)CCN(C(=O)NS(=O)(=O)c2cccc(C)c2)CC3)c1 [Example 17, N-[(3-Methylphenyl)sulfonyl]-7-({[(3-methylphenyl)sulfonyl]carbamoyl}amino)-1,2,4,5-tetrahydro-3H-3-benzazepine-3-carboxamide]
  IC50: 47 µM

## Cc1ccc(S(=O)(=O)NC(=O)Nc2ccc3c(c2)CCN(C(=O)NS(=O)(=O)c2ccc(C)cc2)C3)cc1 [Example 13, N-[(4-methylphenyl)sulfonyl]-6-({[(4-methylphenyl)sulfonyl]-carbamoyl}amino)-3,4-dihydroisoquinoline-2(1H)-carboxamide]
  IC50: 30 µM

## Cc1ccc(S(=O)(=O)NC(=O)Nc2ccc3c(c2)CCN(C(=O)NS(=O)(=O)c2ccc(C)cc2)CC3)cc1 [Example 15, N-[(4-Methylphenyl)sulfonyl]-7-({[(4-methylphenyl)sulfonyl]carbamoyl}amino)-1,2,4,5-tetrahydro-3H-3-benzazepine-3-carboxamide]
  IC50: 59 µM

## N-benzylaminocarbonyl-7-[({[(4-methylphenyl)sulfonyl]amino}carbonyl)amino]-1,2,4,5-tetrahydro-3H-3-benzazepine-3-carboxamide [Example 3]
  IC50: 50 µM

## COc1ccc(S(=O)(=O)NC(=O)Nc2ccc3c(c2)CCN(C(=O)NS(=O)(=O)c2ccc(OC)cc2)CC3)cc1 [Example 21, N-[(4-Methoxyphenyl)sulfonyl]-7-({[(4-methoxyphenyl)sulfonyl]-carbamoyl}amino)-1,2,4,5-tetrahydro-3H-3-benzazepine-3-carboxamide]
  IC50: 38 µM

Source: patent US20090318423A1, “Ion Channel Modulators & Uses Thereof” (LECTUS THERAPEUTICS LIMITED, priority 2006, published 2009)
